# ChEMBL document CHEMBL1649523, “Prospective open-label study of the administration of two-percent voriconazole eye drops” (2009)
# Assays:
# Assay type in all cases: functional
# [1] = system: Candida parapsilosis; assay: Antifungal against Candida parapsilosis; settings: Lodderomyces parapsilosis
# [2] = system: Histoplasma capsulatum; assay: Antifungal against Histoplasma capsulatum
# [3] = system: Candida tropicalis; assay: Antifungal against Candida tropicalis
# [4] = system: Aspergillus fumigatus; assay: Antifungal against Aspergillus fumigatus
# [5] = system: Fusarium solani; assay: Antifungal against Fusarium solani by microdilution technique
# [6] = system: Scedosporium apiospermum; assay: Antifungal against Scedosporium apiospermum
# [7] = system: Cryptococcus neoformans; assay: Antifungal against Cryptococcus neoformans
# [8] = system: Blastomyces dermatitidis; assay: Antifungal against Blastomycoides dermatitidis
# [9] = system: Aspergillus flavus; assay: Antifungal against Aspergillus flavus
# [10] = Antifungal against Coccidioides immitis
# [11] = Antifungal against Acremonium alabamense; settings: Thielavia terrestris
# [12] = system: Fusarium sp.; assay: Antifungal against Fusarium sp.
# [13] = system: Candida albicans; assay: Antifungal against Candida albicans
# [14] = system: Talaromyces marneffei; assay: Antifungal against Penicillium marneffei
# [15] = system: Curvularia; assay: Antifungal against Curvularia
# [16] = Antifungal against Scedosporium
# [17] = Antifungal against Paecilomyces lilacinus; settings: Purpureocillium lilacinum
compound,measurement,setting,value
C[C@@H](c1ncncc1F)[C@](O)(Cn1cncn1)c1ccc(F)cc1F [VORICONAZOLE],MIC90,[1],0.12 µg/mL
same,MIC90,[2],0.25 µg/mL
same,MIC90,[3],> 0.25 µg/mL
same,MIC90,[4],0.5 µg/mL
same,MIC90,[5],2 µg/mL
same,MIC90,[6],0.5 µg/mL
same,MIC90,[7],0.06 µg/mL
same,MIC90,[8],0.25 µg/mL
same,MIC90,[9],0.5 µg/mL
same,MIC90,[10],0.25 µg/mL
same,MIC90,[11],0.25 µg/mL
same,MIC90,[12],0.25 µg/mL
same,MIC90,[13],0.06 µg/mL
same,MIC90,[14],0.03 µg/mL
same,MIC90,[15],0.06 µg/mL
same,MIC90,[16],0.5 µg/mL
same,MIC90,[17],0.5 µg/mL
